Laboratory results taken from ChEMBL document CHEMBL4673371, “Discovery of BAZ1A bromodomain inhibitors with the aid of virtual screening and activity evaluation” (Bioorg Med Chem Lett, 2021).

Assays:
[1] = biological target: T1, Bromodomain adjacent to zinc finger domain protein 1A (Homo sapiens, UniProt Q9NRL2); test: Binding affinity to recombinant human N-terminal His6-tagged BAZ1A (1446 to 1516 residues) expressed in Escherichia coli BL21 (DE3) cells by MST assay
[2] = biological target: T1, Bromodomain adjacent to zinc finger domain protein 1A; test: Binding affinity to recombinant human N-terminal His6-tagged BAZ1A (1446 to 1516 residues) expressed in Escherichia coli BL21 (DE3) cells assessed as change in melting temperature at 25 uM by DSF assay
BT-474 = test: Cytotoxicity against human BT474 cells assessed as reduction in cell viability incubated for 72 hrs by MTT assay; type: functional, cell-based; conditions: BT-474, 72 h
ZR-75-30 = test: Cytotoxicity against human ZR-75-30 cells assessed as reduction in cell viability incubated for 72 hrs by MTT assay; type: functional, cell-based; conditions: ZR-75-30, 72 h
U-87 MG = test: Cytotoxicity against human U87 cells assessed as reduction in cell viability incubated for 72 hrs by MTT assay; type: functional, cell-based, U-87MG ATCC
[3] = Cytotoxicity against human H820 cells assessed as reduction in cell viability incubated for 72 hrs by MTT assay; type: functional, cell-based; conditions: NCI-H820, 72 h
NCI-H1975 = test: Cytotoxicity against human H1975 cells assessed as reduction in cell viability incubated for 72 hrs by MTT assay; type: functional, cell-based; conditions: NCI-H1975, 72 h
THP-1 = test: Cytotoxicity against human THP-1 cells assessed as reduction in cell viability incubated for 72 hrs by MTT assay; type: functional, cell-based; conditions: THP-1, 72 h
Bel-7402 = test: Cytotoxicity against human BEL7402 cells assessed as reduction in cell viability incubated for 72 hrs by MTT assay; type: functional, cell-based; conditions: Bel-7402, 72 h

T1 sequence (Q9NRL2 whole entry, the tested form may be a part): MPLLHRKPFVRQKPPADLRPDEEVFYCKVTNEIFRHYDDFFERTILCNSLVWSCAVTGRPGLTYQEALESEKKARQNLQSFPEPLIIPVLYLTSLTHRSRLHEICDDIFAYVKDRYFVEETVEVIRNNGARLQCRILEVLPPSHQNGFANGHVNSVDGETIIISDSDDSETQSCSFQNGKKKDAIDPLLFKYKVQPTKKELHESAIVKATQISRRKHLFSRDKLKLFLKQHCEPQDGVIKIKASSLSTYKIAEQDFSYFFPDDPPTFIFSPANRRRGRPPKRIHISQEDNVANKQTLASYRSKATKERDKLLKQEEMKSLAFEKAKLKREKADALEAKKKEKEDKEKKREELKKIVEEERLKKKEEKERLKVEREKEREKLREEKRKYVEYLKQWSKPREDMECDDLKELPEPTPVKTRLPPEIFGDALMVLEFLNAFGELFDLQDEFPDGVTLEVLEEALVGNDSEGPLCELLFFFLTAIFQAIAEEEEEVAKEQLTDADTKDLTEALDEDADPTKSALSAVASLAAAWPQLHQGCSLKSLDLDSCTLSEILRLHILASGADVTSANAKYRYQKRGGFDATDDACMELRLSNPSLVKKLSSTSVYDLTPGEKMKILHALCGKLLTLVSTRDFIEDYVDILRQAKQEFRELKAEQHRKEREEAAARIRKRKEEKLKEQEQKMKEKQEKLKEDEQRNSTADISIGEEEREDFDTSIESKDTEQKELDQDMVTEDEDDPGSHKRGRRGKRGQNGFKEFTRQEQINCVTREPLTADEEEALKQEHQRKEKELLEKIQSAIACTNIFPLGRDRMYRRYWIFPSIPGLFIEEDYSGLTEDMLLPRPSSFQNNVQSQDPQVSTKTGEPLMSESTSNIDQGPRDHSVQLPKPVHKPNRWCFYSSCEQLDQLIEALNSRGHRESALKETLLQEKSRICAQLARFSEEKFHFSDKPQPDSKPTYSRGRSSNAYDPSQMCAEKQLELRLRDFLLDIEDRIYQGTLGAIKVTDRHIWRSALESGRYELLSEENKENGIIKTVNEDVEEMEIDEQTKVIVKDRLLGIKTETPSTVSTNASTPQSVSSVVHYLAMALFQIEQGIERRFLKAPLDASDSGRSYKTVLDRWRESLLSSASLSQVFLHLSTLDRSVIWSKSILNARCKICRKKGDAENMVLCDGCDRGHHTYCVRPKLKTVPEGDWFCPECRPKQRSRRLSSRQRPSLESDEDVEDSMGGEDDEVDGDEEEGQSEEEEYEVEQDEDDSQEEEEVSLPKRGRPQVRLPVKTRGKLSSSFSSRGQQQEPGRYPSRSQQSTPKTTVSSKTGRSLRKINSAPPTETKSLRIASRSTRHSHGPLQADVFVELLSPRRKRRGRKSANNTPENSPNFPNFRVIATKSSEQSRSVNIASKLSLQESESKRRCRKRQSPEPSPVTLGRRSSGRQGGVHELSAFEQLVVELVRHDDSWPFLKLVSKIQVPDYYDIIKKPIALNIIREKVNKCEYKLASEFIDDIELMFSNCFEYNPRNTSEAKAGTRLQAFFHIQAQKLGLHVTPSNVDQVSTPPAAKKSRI

SMILES	Kd [1]	ΔTm [2]	other results
O=C(Nc1cccc([N+](=O)[O-])c1)Nc1ccc2c(c1)C(=O)CC2	22 µM	1.16 °C	
Cc1ccc2nc(-c3ccc(NC(=O)c4ccc([N+](=O)[O-])o4)cc3)oc2c1	26.6 µM	1.9 °C	
O=C(Nc1cccc([N+](=O)[O-])c1)Nc1ccc2cccnc2c1	6.68 µM	1.63 °C	
O=C(Nc1ccc(C(F)(F)F)cc1)Nc1cccc(O)c1	13.2 µM	3.15 °C	
O=C(Nc1cccc([N+](=O)[O-])c1)Nc1ccc2c(c1)OCCO2	1.36 µM	1.62 °C	
O=C(Nc1cccc([N+](=O)[O-])c1)Nc1ccc2nccnc2c1	3.09 µM	1.64 °C	
O=C(Nc1cccc([N+](=O)[O-])c1)Nc1nc(-c2ccccc2)cs1	0.52 µM	2.73 °C	IC50 (BT-474): 10.7 µM; IC50 (ZR-75-30): 4.29 µM; IC50 (U-87 MG): > 100 µM; IC50 [3]: 73.7 µM; IC50 (NCI-H1975): 7.7 µM; IC50 (THP-1): 5.08 µM; IC50 (Bel-7402): > 100 µM
CN(C)c1ccc(NC(=O)Nc2cccc([N+](=O)[O-])c2)cc1	1.76 µM	1.56 °C	
C=C(C)C(=O)Nc1ccc(-c2nc3cc(NC(=O)C(=C)C)ccc3[nH]2)cc1	15.2 µM	1.61 °C	
CN(Cc1cccc([N+](=O)[O-])c1)C(=O)Nc1ccc2nnsc2c1	57.6 µM	1.46 °C	

Now from value to molecule, other results behind:

Kd [1]	ΔTm [2]	SMILES	other results
1.87 µM	1.25 °C	NC(C(=O)Nc1ccc2nnsc2c1)c1ccccc1 (centres undefined)	
1.57 µM	2.59 °C	O=C(Nc1ccc(Cl)c(Cl)c1)Nc1ccc2nnsc2c1	
8.2 µM	1.62 °C	CC(NC(=O)Nc1ccc2nnsc2c1)c1cccc(F)c1 (centres undefined)	
16.3 µM	1.68 °C	O=C(Nc1ccc2nnsc2c1)N(O)c1ccccc1	
25.6 µM	1.2 °C	O=C(NCC(=O)N1CCCCC1)Nc1ccc2nnsc2c1	
3.93 µM	1.94 °C	O=C(Nc1ccc2cncnc2c1)Nc1ccc2nnsc2c1	
